Measured values published in patent US6602914B2, “Compounds and methods for the inhibition of the expression of VCAM-1” (AtheroGenics, Inc., priority 1997, dated 2003).
One block for each molecule: values may come before it.

What was measured:
VCAM-1 = VCAM-1 Assay: TNF-stimulated cells, cell-surface ELISA; format: cell-based; conditions: for IC50: bare number = IC50, NE not defined in the patent, read-out: VCAM-1 IC50 or % inhibition at [μM]: IC50; for VCAM-1 % inhibition at [μM]: at 50 μM
Procedure: Two to four confluent P150 plates are trypsinized and the cells transferred to a 50 mL conical centrifuge tube. The cells are pelleted, resuspended, and counted using the trypan blue exclusion method.
Cells are resuspended at a concentration of 36,000 cells/mL and 1 mL is aliquoted per well.
Cells are split into 24 well tissue culture plates. The cells in each well should be approximately 90-95% confluent by the following day. Cells should not be older than passage 8.
Compounds are initially screened at 50 μM and 10 μM. A 50 mM stock solution for each compound is prepared in culture medium. The stock solution is diluted to 5 mM and 1 mM. When 10 μL of the 5 mM solution is added to the well (1 mL medium/well), the final concentration will be 50 μM. Adding 10 μL of the 1 mM solution to the well will give a final concentration of 10 μM.
Compounds which will not go into solution in culture medium are resuspended in DMSO at a concentration of 25 mM. The stock solution is then diluted to the final concentration in culture medium. The old medium is aspirated and 1 mL of the new medium with the compound is added. For example, if the final concentration is 50 μM, the 2 μL of the 25 mM stock is added per mL of culture medium. The […] solution is diluted for lower concentrations.
The compounds are added to the plate (each compound is done in duplicate). One plate is done for VCAM expression and one plate is done for ICAM expression.
Immediately after the compounds are added, TNF is added to each well. 100 units/mL TNF is usually added to each well. Since each lot of TNF varies in the number of units, each new lot is titrated to determine the optimum concentration. Therefore this concentration will change. If 100 units/mL is bing used, dilute the TNF to 10 units/μL and add 10 μL to each well.
The plates are incubated at 37° C., 5% CO2 overnight (approximately 16 hours). The next day the plates are checked under the microscope to see if there are any visual signs of toxicity. Records are made of any cell death, debris, or morphology changes, as well as insoluble compounds (particulate or turbity).
In order to assess MCP-1, the media (500 μL) is saved and frozen at −70° C. Wash cells once with roughly 1 ml/well of Hanks Balance Salt Solution (HBSS) or PBS. Gently empty the wash solution and then tap the plate onto paper towels. Add either 250 μL/well of HBSS +5% FCCS to the plank (no primary antibody wells) or 250 μL/well of primary antibody diluted in HBSS +5% FCS. Incubate for 30 minutes at 37° C. Wash the wells twice with 0.5 mL/well HBSS or PBS and gently tap the plates onto paper towels after the last wash. Add 250 μL/well of HRP-conjugated second antibody diluted in HBSS +5% FCS to every well including the blank wells (no primary antibody). Incubate at 37° C. for 30 minutes. Wash the wells four times with 0.5 mL/well HBSS or PBS and gently tap the plates onto paper towels after the last wash. Add 250 μL/well of substrate solution. Incubate at room temperature in the dark until there is adequate color development (blue). Note the length of time incubation was performed (typically 15-30 minutes). Add 75 μL/well stopper solution (8N sulfuric acid), and read A450 nm.

ApoB/HepG2 = assay: Lipid Screen & IC50 Determination Protocol: ApoB ELISA of HEPG2 media; format: cell-based, human; conditions: HEPG2, 24 hours; for IC50: bare number = IC50, NE not defined in the patent, read-out: ApoB/HepG2 IC50 or % inhibition at [μM]: IC50; for ApoB/HepG2 % inhibition at [μM]: at 15 μM
Procedure: HEPG2 cell was started in 10 ml of MEM, 10% FBS, 1 mM Sodium Pyruvate. The cells were incubated in a tissue culture incubator. The cells were split into 4×96-wells plate in MEM, 10% FBS, 1 mM Sodium Pyruvate and allowed to grow to about 50% confluency and then removed.
The cells were treated with the desired concentration of compounds in 100 μl DMEM, 1% RSA for 24 hours. The compounds are dissolved in DMSO.
On the same day, 4×96-wells NuncImmunoSorb plate is coated with 100 μl of mouse anti-human ApoB monoclonal 1D1 (1:1000 dilution in 1×PBS, pH 7.4). The coating is allowed overnight.
The coated plate is washed 3 times with 1×PBS, pH 7.4, −0.05% Tween 20. 100 μl of the standards is added to the selected wells. ApoB standards are prepared at 6.25, 3.12, 1.56, 0.78, 0.39 ng, and each concentration is done in triplicates. For samples:
90 μl of 1×PBS, pH 7.4, −0.05% Tween 20 is added to each well corresponding to the sample. 10 μl of media is transferred from the treated HEPG2 plates to the ApoB ELISA plate. The plate is incubated at room temperature for 2 hours, rocking gently.
Wash the coated plate 3× with 1×PBS, pH 7.4, −0.05% Tween 20. Add 100 μl of sheep anti-human ApoB polyclonal from Boehringer Mannheim. (1:2000 dilution in 1×PBS, pH 7.4, −0.05% Tween 20) from Boehringer Mannheim. Incubate at room temperature for 1 hour, rocking gently. Wash the coated plate 3× with 1×PBS, pH 7.4, −0.05% Tween 20. Add 100 μl of rabbit anti-sheep IgG (1:2000 dilution in 1×PBS, pH 7.4, −0.05% Tween 20). Incubate at room temperature for 1 hour, rocking gently. Wash the coated plate 3× with 1×PBS, pH 7.4, −0.05% Tween 20. Add 100 μl of substrate (10 ml of distilled water, 100 μl of TMB (10 mg/ml), and 1 μl of hydrogen peroxide). Allow color to emerge and stop reaction with 25 ul of 8N sulfuric acid. Wells are read with MicroPlate Reader @ […]. Graph accumulation of ApoB in media as a percentage of control for each sample and their concentration. A determination of IC50 is obtained from the graph.
The degree of inhibition of the compounds of formulas (I) and (II) was determined by the assays described in Examples 62-64.

Molecule: CC(C)(C)c1cc(S(=O)(=O)Cc2ccc([N+](=O)[O-])cc2)cc(C(C)(C)C)c1O [2,6-di-tert-butyl4-(sulfonyl-(4′-nitrobenzyl))phenol]
- IC50 (VCAM-1): 40 µM
- IC50 (ApoB/HepG2): 25 µM

Molecule: CC(C)(C)c1cc(SCc2ccc([N+](=O)[O-])cc2[N+](=O)[O-])cc(C(C)(C)C)c1O [2,6-di-tert-butyl4-thio(2′,4′-dinitrobenzyl)phenol]
- IC50 (VCAM-1): 8 µM
- IC50 (ApoB/HepG2): 32 µM

Molecule: CC(C)(C)c1cc(SCc2ccc([N+](=O)[O-])cc2)cc(C(C)(C)C)c1O [2,6-di-tert-butyl4-thio(4′-nitrobenzyl)phenol]
- IC50 (VCAM-1): 10 µM
- IC50 (ApoB/HepG2): 27 µM

Molecule: CC(C)(C)c1cc(SCc2cccc([N+](=O)[O-])c2)cc(C(C)(C)C)c1O [2,6-di-tert-butyl-4-thio(3′-nitrobenzyl)phenol]
- IC50 (VCAM-1): 13 µM
- IC50 (ApoB/HepG2): 20 µM

Molecule: CC(C)(C)c1cc(SCCCS(=O)(=O)O)cc(C(C)(C)C)c1O [2,6-di-tert-butyl-4-thio(3′-propanesulfonic acid)phenol]
- VCAM-1 % inhibition at [μM] (VCAM-1): 25% at 50

Molecule: CC(C)(C)c1cc(SCc2ccc(CC(=O)O)cc2)cc(C(C)(C)C)c1O [2,6-di-tert-butyl-4-thio(4′(methyl)phenylacetic acid))phenol]
- IC50 (VCAM-1): 80 µM
- ApoB/HepG2 % inhibition at [μM] (ApoB/HepG2): 7% at 15

Molecule: CC(C)(C)c1cc(SCc2ccc(CCO)cc2)cc(C(C)(C)C)c1O [2,6-di-tert-butyl-4-thio(4′-(methyl)phenylethyl alcohol))phenol]
- IC50 (VCAM-1): 15 µM
- ApoB/HepG2 % inhibition at [μM] (ApoB/HepG2): 53% at 15

Molecule: CC(=O)Oc1ccc(CSc2cc(C(C)(C)C)c(O)c(C(C)(C)C)c2)cc1 [2,6-di-tert-butyl-4-thio(4′-acetoxybenzyl)phenol]
- IC50 (VCAM-1): 18 µM
- IC50 (ApoB/HepG2): 40 µM

Molecule: CC(C)(C)c1cc(SCc2ccc(F)cc2)cc(C(C)(C)C)c1O [2,6-di-tert-butyl-4-thio(4′-fluorobenzyl)phenol]
- IC50 (VCAM-1): 35 µM
- IC50 (ApoB/HepG2): 30 µM

Molecule: CN(C)S(=O)(=O)c1ccc(CSc2cc(C(C)(C)C)c(O)c(C(C)(C)C)c2)cc1 [2,6-di-tert-butyl-4-thio(4′-methyl-N,N-dimethylbenzenesulfonamide)phenol]
- IC50 (VCAM-1): 20 µM
- IC50 (ApoB/HepG2): 31 µM

Molecule: Cc1ccc(CSc2cc(C(C)(C)C)c(O)c(C(C)(C)C)c2)cc1 [2,6-di-tert-butyl-4-thio(4′-methylbenzyl)phenol]
- IC50 (VCAM-1): 75 µM
- IC50 (ApoB/HepG2): 22 µM

Molecule: CC(C)(C)c1cc(SCCc2ccc([N+](=O)[O-])cc2)cc(C(C)(C)C)c1O [2,6-di-tert-butyl-4-thio(4′-nitrophenethyl)phenol]
- IC50 (VCAM-1): 15 µM

Molecule: CN(C)Cc1ccc(CSc2cc(C(C)(C)C)c(O)c(C(C)(C)C)c2)o1 [2,6-di-tert-butyl-4-thio(5′-methyl-2′-((dimethylamino)methyl)furan)phenol]
- IC50 (VCAM-1): 10 µM
- IC50 (ApoB/HepG2): 19 µM

Molecule: CC(C)(C)c1cc(SCCCC(=O)O)cc(C(C)(C)C)c1O [2,6-di-tert-butyl-4-thio(butanoic acid)phenol]
- IC50 (VCAM-1): 75 µM

Molecule: CC(C)(C)c1cc(SCc2ccc(C(=O)O)o2)cc(C(C)(C)C)c1O [2,6-di-tert-butyn4-thio((2′-furancarboxylic acid)-5-methyl)phenol]
- IC50 (VCAM-1): 40 µM

Molecule: CC(C)(C)c1cc(SCc2ccc(C(F)(F)F)cc2)cc(C(C)(C)C)c1O [(2,6-di-tert-butyl4-thio(4′-(trifluoromethyl)benzyl)phenol]
- IC50 (VCAM-1): 5 µM
- IC50 (ApoB/HepG2): 16 µM

- IC50 (VCAM-1): 5.6 µM
Molecule: CC(C)(Sc1cc(C(C)(C)C)c(O)c(C(C)(C)C)c1)Sc1cc(C(C)(C)C)c(OC(=O)CCC(=O)O)c(C(C)(C)C)c1 [Butanedioic acid, mono [4-[[1-[[3,5-bis(1,1-dimethylethyl)-4-hydroxyphenyl]thio]-1-methylethyl]thio]2,6-bis(1,1-dimethylethyl)phenyl]ester]
- ApoB/HepG2 % inhibition at [μM] (ApoB/HepG2): 65% at 15

- IC50 (VCAM-1): > 100 µM
Molecule: CC(C)(Sc1cc(C(C)(C)C)c(O)c(C(C)(C)C)c1)Sc1cc(C(C)(C)C)c(OCC2OC2CO)c(C(C)(C)C)c1 (centres unmarked) [Oxiranemethanol, 3-[[4-[[1-[[3,5-bis(1,1-dimethylethyl)-4-hydroxyphenyl]thio]-1-methylethyl]thio]-2,6-bis(1,1-dimethylethyl)phenoxy]methyl]-]

- IC50 (VCAM-1): 45 µM
Molecule: CC(C)(Sc1cc(C(C)(C)C)c(O)c(C(C)(C)C)c1)Sc1cc(C(C)(C)C)c(OCC(O)C2CO2)c(C(C)(C)C)c1 (stereo not drawn) [Oxiranemethanol, α-[[4-[[1-[[3,5-bis(1,1-dimethylethyl)-4-hydroxyphenyl]thio]-1-methylethyl]thio]-2,6-bis(1,1-dimethylethyl)phenoxy]methyl]-]

Molecule: CC(C)(Sc1cc(C(C)(C)C)c(O)c(C(C)(C)C)c1)Sc1cc(C(C)(C)C)c(OC(=O)CCCC(=O)O)c(C(C)(C)C)c1 [Pentanedioic acid, mono[4-[[1-[[3,5-bis(1,1-dimethylethyl)-4-hydroxyphenyl]thio]-1-methylethyl]thio]-2,6-bis(1,1-dimethylethyl)phenyl] ester]
- IC50 (VCAM-1): 8.7 µM
- ApoB/HepG2 % inhibition at [μM] (ApoB/HepG2): 70% at 15

Molecule: CC(C)(Sc1cc(C(C)(C)C)c(O)c(C(C)(C)C)c1)Sc1cc(C(C)(C)C)c(OCc2ccc([N+](=O)[O-])cc2)c(C(C)(C)C)c1 [Phenol, 4-[[1-[3,5-bis(1,1-dimethylethyl)-4-[(4-nitrophenyl)methoxy]phenyl]thio]-1-methylethyl]thio]2,6-bis(1,1-dimethylethyl)-]
- VCAM-1 % inhibition at [μM] (VCAM-1): 30% at 50
- ApoB/HepG2 % inhibition at [μM] (ApoB/HepG2): 17% at 15

- IC50 (VCAM-1): 45 µM
Molecule: CC1(C)OC2OC(COc3c(C(C)(C)C)cc(SC(C)(C)Sc4cc(C(C)(C)C)c(O)c(C(C)(C)C)c4)cc3C(C)(C)C)C3OC(C)(C)OC3C2O1 [α-D-Galactopyranose, 60-[4-[[1-[[3,5-bis(1,1-dimethylethyl)-4-hydroxyphenyl]thio]-1-methylethyl]thio]-2,6-bis(1,1-dimethylethyl)phenyl]-1,2:3,4-bis-O-(1-methylethylidene)]

- IC50 (VCAM-1): 60 µM
Molecule: Oxiranemethanol, α-[[[3-[[4-[[1-[[3,5-bis(1,1-dimethylethyl)-4-hydroxyphenyl]thio]-1-methylethyl]thio]-2,6-bis(1,1-dimethylethyl)phenoxy]methyl]oxiranyl]methoxy]methyl]-
